Data published in publication PMC10251139 (SLAS discovery : advancing life sciences R & D, 2023).

Target: T1, PLCγ2 (Homo sapiens, UniProt P16885)
T1 sequence (P16885 1-1195): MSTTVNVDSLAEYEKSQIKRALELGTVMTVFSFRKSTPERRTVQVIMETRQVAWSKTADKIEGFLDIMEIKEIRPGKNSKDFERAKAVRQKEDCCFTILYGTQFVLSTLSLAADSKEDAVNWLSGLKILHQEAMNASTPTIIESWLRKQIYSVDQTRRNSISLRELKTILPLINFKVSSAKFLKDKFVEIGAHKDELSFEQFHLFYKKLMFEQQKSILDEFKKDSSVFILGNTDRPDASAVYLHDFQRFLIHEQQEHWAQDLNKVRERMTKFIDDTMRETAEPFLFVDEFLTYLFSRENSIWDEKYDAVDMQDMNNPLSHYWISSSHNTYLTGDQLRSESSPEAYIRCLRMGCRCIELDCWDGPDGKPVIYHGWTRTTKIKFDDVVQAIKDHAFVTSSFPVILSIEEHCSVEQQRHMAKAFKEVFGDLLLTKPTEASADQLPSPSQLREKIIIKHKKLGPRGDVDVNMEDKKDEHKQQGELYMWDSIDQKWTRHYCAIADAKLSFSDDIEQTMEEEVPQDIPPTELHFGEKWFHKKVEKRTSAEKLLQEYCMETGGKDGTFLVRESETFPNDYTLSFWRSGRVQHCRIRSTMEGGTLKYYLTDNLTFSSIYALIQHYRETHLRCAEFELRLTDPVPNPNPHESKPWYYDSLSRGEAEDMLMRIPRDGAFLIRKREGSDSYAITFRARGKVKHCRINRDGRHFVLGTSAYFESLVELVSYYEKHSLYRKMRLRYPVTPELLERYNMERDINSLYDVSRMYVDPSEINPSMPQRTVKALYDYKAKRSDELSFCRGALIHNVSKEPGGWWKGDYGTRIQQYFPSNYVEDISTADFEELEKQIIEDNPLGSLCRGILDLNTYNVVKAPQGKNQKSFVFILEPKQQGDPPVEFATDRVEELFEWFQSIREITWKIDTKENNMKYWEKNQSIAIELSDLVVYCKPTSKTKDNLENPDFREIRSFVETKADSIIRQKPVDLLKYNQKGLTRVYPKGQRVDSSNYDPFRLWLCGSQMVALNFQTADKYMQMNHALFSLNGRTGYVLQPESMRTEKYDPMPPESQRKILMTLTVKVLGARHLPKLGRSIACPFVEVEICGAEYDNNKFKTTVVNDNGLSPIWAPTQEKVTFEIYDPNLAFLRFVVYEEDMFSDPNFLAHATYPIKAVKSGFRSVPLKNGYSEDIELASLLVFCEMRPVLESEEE
Assay: inhibition of C8CF3-coumarin processing by purified enzyme
Assay type: biochemical

Nc1ncnc2c1ncn2[C@@H]1O[C@H](COP(=O)(O)OP(=O)(O)OP(=O)(O)O)[C@@H](O)[C@H]1O [adenosine triphosphate]
IC50: 27.2 µM
